US20050036992A1, “Novel use of liver X receptor agonists” (IRM LLC, priority 2002, published 2005)
Values belong to the compound of their own block, whether it stands above or below them.

Legend:
[1] = test system: PGC-1 and PEPCK expression in livers of LXR null mice; assay: Liver gene expression in LXR null mice vs wild-type controls; format: in vivo, mouse; settings: 20 mg/kg/day gavage; FIG. 3A
Description: (§1) This Example describes that the effects of LXR agonists on expression of genes involved in glucose metabolism is dependent on LXR expression. LXR null mice or wild-type controls on a mixed background (n=4 per group) were gavaged daily with GW3965 (20 mg/kg/day) or vehicle. At the end of the treatment period, mice were fasted for 12 hours, sacrificed and total RNA was isolated. Gene expression for was determined by real time quantitative PCR assays.

[2] = molecular target: T1, LXRα (Homo sapiens, UniProt Q13133); settings: Collins et al. 2002; cited from earlier work
T1 sequence (Q13133 1-447): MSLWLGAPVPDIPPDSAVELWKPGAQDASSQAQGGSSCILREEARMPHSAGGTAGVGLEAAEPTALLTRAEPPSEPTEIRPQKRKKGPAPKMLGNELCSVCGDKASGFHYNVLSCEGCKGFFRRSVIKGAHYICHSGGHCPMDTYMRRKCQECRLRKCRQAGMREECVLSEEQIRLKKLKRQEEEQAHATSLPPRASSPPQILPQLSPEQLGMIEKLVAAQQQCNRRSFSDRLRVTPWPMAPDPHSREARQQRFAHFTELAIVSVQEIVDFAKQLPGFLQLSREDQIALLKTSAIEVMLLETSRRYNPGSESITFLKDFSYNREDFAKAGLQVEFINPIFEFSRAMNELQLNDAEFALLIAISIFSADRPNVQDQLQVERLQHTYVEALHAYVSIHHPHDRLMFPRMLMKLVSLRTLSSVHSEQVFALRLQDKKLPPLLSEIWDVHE

[3] = test system: GLUT4 expression in adipose tissue of LXR null mice; assay: Adipose tissue gene expression in LXR null mice vs wild-type controls; format: in vivo, mouse; settings: 20 mg/kg/day gavage; FIG. 3B
Description: as §1

[4] = test system: C57B16 mice fed a high fat diet; assay: Glucose tolerance test in diet-induced obese mice; format: in vivo, mouse; settings: diet-induced obesity, 20 mg/kg/day for one week
Description: To further examine effects of LXR agonists on glucose tolerance, C57B16 mice were fed a high fat diet for three months (Clinton/Cybulsky rodent diet; 40% kcal from fat, devoid of cholesterol) to induce obesity. After 3 months, mice were treated for one week with vehicle or 20 mg/kg/day GW3965. Glucose tolerance tests were performed by intraperitoneal injection of glucose (2 g/kg body weight) after 8 hours of fasting (FIG. […]). In addition, effect of GW3965 on glucose tolerance in lean C57B1/6 mice was also examined (FIG. 10B). The lean C57B1/6 mice maintained on normal chow diet and similarly treated as indicated above.

[5] = test system: GLUT4 expression in white adipose tissue; assay: Gene expression in white adipose tissue of mice gavaged with LXR agonist (real time quantitative PCR); format: in vivo, mouse; settings: C57/B16 mice, 20 mg/kg/day gavage, fasted 12 hours; FIG. 1B
Description: (§2) This Example describes coordinated regulation of genes involved in glucose metabolism by LXR agonist in vivo. 10 week old female C57/B16 mice (n=9 per group) were gavaged daily with GW3965 (20 mg/kg/day) or vehicle. At the end of the treatment period, mice were fasted for 12 hours, sacrificed and total RNA was isolated. Gene expression for individual animals was determined by real time quantitative PCR assays. The results are presented in FIGS. 1 and 2 as average expression for each group +/−standard deviation.

[6] = test system: obese, insulin-resistant ob/ob mice; assay: Fasting plasma glucose in ob/ob mice, LXR agonist and/or metformin; format: in vivo, mouse; settings: 3 months, GW3965 20 mg/kg/day, metformin 300 mg/kg/day, FIG. 11
Description: This Example describes treatment of mice with a combination of an LXR agonist and a known anti-diabetic drug. Obese, insulin-resistant ob/ob mice were treated with an LXR ligand, GW3965, at 20 mg/kg/day and/or metformin at 300 mg/kg/day for 3 months. Fasting plasma glucose levels were then determined.

[7] = molecular target: T2, LXRβ (Homo sapiens, UniProt P55055); settings: Collins et al. 2002; cited from earlier work
T2 sequence (P55055 1-460): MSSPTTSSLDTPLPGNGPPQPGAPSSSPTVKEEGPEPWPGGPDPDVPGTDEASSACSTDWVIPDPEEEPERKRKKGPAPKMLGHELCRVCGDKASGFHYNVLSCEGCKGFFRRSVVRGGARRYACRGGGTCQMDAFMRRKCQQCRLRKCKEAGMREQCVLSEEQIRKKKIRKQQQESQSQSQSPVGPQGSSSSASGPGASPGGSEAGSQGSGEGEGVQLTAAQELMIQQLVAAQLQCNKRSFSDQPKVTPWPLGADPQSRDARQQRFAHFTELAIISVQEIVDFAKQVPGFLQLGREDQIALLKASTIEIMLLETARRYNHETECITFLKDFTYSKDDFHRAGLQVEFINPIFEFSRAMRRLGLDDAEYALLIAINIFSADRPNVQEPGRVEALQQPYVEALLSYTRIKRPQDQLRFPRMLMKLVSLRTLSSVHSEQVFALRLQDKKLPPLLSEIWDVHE

[8] = test system: genes involved in glucose metabolism in liver; assay: Gene expression in liver of mice gavaged with LXR agonist (real time quantitative PCR); format: in vivo, mouse; settings: C57/B16 mice, 20 mg/kg/day gavage, fasted 12 hours; FIG. 1A
Description: as §2

[9] = test system: LXRs; settings: Lehmann et al. 1997; cited from earlier work
[10] = molecular target: T3, glucocorticoid receptor DNA binding domain and the ligand binding region of LXRβ (Homo sapiens, UniProt P55055); settings: Schmidt et al. 1999; cited from earlier work
T3 sequence (P55055 222-460 limits assumed): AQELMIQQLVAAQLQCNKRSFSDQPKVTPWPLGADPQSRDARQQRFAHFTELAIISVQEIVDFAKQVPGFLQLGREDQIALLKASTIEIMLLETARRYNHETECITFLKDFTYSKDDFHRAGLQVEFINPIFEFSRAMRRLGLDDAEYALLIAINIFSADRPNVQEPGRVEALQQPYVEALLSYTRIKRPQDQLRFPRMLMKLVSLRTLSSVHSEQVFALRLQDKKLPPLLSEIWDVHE

[11] = molecular target: T4, glucocorticoid receptor DNA binding domain and the ligand binding region of PPARα (Homo sapiens, UniProt Q07869); settings: Schmidt et al. 1999; cited from earlier work
T4 sequence (Q07869 239-466 limits assumed): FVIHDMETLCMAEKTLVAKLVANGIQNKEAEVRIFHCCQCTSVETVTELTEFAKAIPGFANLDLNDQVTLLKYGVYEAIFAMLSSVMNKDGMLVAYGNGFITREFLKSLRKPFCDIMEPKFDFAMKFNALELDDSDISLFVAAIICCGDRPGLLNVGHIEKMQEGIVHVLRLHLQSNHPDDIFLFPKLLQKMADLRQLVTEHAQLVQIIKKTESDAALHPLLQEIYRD

[12] = molecular target: T5, glucocorticoid receptor DNA binding domain and the ligand binding region of PPARβ (Homo sapiens, UniProt Q03181); settings: Schmidt et al. 1999; cited from earlier work
T5 sequence (Q03181 211-439 limits assumed): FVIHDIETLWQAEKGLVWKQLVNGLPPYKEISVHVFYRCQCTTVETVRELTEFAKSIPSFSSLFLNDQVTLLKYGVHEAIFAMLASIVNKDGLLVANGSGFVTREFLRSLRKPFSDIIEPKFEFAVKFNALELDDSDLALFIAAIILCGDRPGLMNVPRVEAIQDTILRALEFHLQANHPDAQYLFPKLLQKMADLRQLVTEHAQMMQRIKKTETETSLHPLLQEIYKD

[13] = test system: human GLUT4 promoter; assay: Human GLUT4 promoter luciferase reporter in 3T3-L1 adipocytes; format: cell-based, mouse; settings: 3T3-L1 adipocytes day 8, serum-free media, 24 hours; FIG. 8B
Description: To further examine whether LXR ligands activate the human GLUT4 promoter, clonal populations of 3T3-L1 cells carrying stably-integrated luciferase reporters under the control of various truncations of the human GLUT4 promoter were differentiated into adipocytes. On day 8 of differentiation, cells were incubated in serum-free media with the indicated concentrations of T1317. Luciferase activity was measured 24 hours later.

[14] = test system: 3T3-L1 adipocytes; assay: Basal glucose uptake in 3T3-L1 adipocytes (14C-labeled 2-DOG); format: cell-based; settings: 3T3-L1 adipocytes day 10, 24 hours serum-free; FIG. 9
Description: 3T3-L1 adipocytes at day 10 of differentiation were incubated for 24 hours with serum-free media supplemented with the indicated concentrations of T1317. The following day, basal glucose uptake (in the absence of insulin) of treated cells was measured in 96-well CytostarT plates using 14 C-labeled 2-DOG. Insulin (1 μg/ml) was used as positive control.

- glucokinase expression in liver [8]: induces
SMILES: O=C(O)Cc1cccc(OCCCN(Cc2cccc(C(F)(F)F)c2Cl)CC(c2ccccc2)c2ccccc2)c1 [GW3965]
- regulation of PEPCK expression in livers of LXR null mice [1]: abolished
- regulation of PGC-1 expression in livers of LXR null mice [1]: abolished
- activation of LXRα [2]: effective in activating
- regulation of GLUT4 expression in adipose tissue of LXR null mice [3]: abolished
- insulin resistance [4]: improve
- glucose tolerance ([4]; i.p. glucose 2 g/kg after 8 hours fasting): improve
- GLUT4 expression in white adipose tissue [5]: induces
- fasting plasma glucose level compared to control (vehicle) [6]: did not show significant difference
- activation of LXRβ [7]: effective in activating
- expression of genes involved in gluconeogenesis in liver [8]: represses

SMILES: CN(C)C(=N)N=C(N)N [metformin]
- fasting plasma glucose level compared to control (vehicle) [6]: did not show significant difference

SMILES: CC(C)CC[C@@H](O)[C@@H](C)[C@H]1CC[C@H]2[C@@H]3CC=C4C[C@@H](O)CC[C@]4(C)[C@H]3CC[C@]12C [22(R)-hydroxycholesterol]
- activation of LXRs [9]: activated

SMILES: CC(C)[C@@H](O)CC[C@@H](C)[C@H]1CC[C@H]2[C@@H]3CC=C4C[C@@H](O)CC[C@]4(C)[C@H]3CC[C@]12C [24(S)-hydroxycholesterol]
- activation of LXRs [9]: activated

SMILES: CCCCCCCCCCCCCCOc1ccc(C(=O)O)o1 [TOFA, 5-tetradecyloxy-2-furancarboxylic acid]
- transactivation of chimeric GR DBD / LXRβ ligand binding region receptor [10]: transactivates
- transactivation of chimeric GR DBD / PPARα ligand binding region receptor [11]: transactivates
- transactivation of chimeric GR DBD / PPARβ ligand binding region receptor [12]: transactivates

SMILES: C[C@H](CC[C@@H]1OC1(C)C)[C@H]1CC[C@H]2[C@@H]3CC=C4C[C@@H](O)CC[C@]4(C)[C@H]3CC[C@]12C [24,25(S)-epoxycholesterol]
- activation of LXRs [9]: activated

- luciferase activity under control of human GLUT4 promoter truncations [13]: direct target for regulation
SMILES: O=S(=O)(c1ccccc1)N(CC(F)(F)F)c1ccc(C(O)(C(F)(F)F)C(F)(F)F)cc1 [T1317]
- basal glucose uptake (in the absence of insulin) [14]: enhance glucose uptake
